Source: patent US4150970A, “Growth regulator for plants” (Board of Trustees of Michigan State University, priority 1977, dated 1979)
Entries after “also recorded” stand apart in the source; their conditions may differ.

Experiments:
rice = assay: Synthetic triacontanol on rice in nutrient cultures (Example III); assay type: in vivo; conditions: for Dry wt / Water Uptake: seven days
Procedure: Synthetic triacontanol in aqueous solution was applied to rice (4 replicates) in nutrient cultures and to "Chico III" tomatoes (6 replicates) grown in soil as previously described. The response of both rice and tomatoes to synthetic triacontanol after seven and six days respectively was similar to that of the natural triacontanol with the optimum rate at between 0.01 and 0.1 mg per liter, as summarized in the following table III:
^1 Treatments applied on filter paper, including control and placed i
nutrient solution. The solution was changed after 4 days. Seedlings
weighed 57 mg at initiation of test.

[1] = tested on: Starbonnet rice seedlings; assay: Growth analysis of Starbonnet rice seedlings under different light intensities (Example VI); assay type: in vivo; design: key to NAR: mg plant weight per cm^2 leaf area per day; RGR / LAR: unit not given here
Procedure: Rice seed cv. IR-8, or Starbonnet was surface treated with 0.1 percent mercuric chloride and planted in 77 cc plastic cups containing vermiculite and watered with one-fourth Hoagland's nutrient solution containing 3 mM of nitrogen at pH 5.0. After 10 days, seedlings were transplanted to 220 cc specimen cups wrapped in aluminum foil and containing 180 cc of the same Hoagland's nutrient solution. Four seedlings were suspended in the solution with a sponge rubber disc. The plants were grown under a 8 h night at 25° C. and a 16 h day at 30° C. with 21 and 8 μwatts per cm^2 in the blue and red spectra respectively. In the test with varying light intensity the high light intensity was 30 13 and the low intensity was 15 and 8 μwatts per cm^2 for the blue and red spectra respectively. The nutrient solution was renewed every 2 or 3 days. After one week the plants were sorted for size and similar sized plants assigned to the same block for the experiment. Prior to the initiation of a test the plants in each cup were assigned treatment numbers by use of a random number table. […] Sixteen hours prior to a test the foil wrapped cups were tared, and filled with one-half Hoaglands solution containing 6 mM nitrogen. Eighteen μl of chloroform or chloroform containing 1.8 μg triacontanol were placed on 2 cm^2 of Whatman No. 1 filter papers, air dried and placed in the specimen cups. This concentration of 10 μg triacontanol/liter was used for all tests described in the following Examples except where specifically indicated to the contrary. Immediately prior to the test the cups were all brought up to 180 ml. including a set of cups without plants to measure evaporation.
The plants were disected at harvest into shoots and roots. The expanded leaves were cut at the ligule and the newest leaf at the point it entered the sheath. The surface area of expanded leaves were measured using a Lambda Model LI-3000 planimeter. The plants were dried to constant weight in an oven at 100° C. and the roots, expanded leaves, and sheaths were weighed separately.
Growth analysis was conducted according to Evans (1972). The Net Assimulation Rate (NAR) is the increase in plant weight per unit of leaf area over time interval where: W=total weight per plant in mg, T=time in days, and L=leaf area in cm^2. [formula]
The relative growth rate (RGR) is the increase in plant weight per unit of original weight over a time interval and is obtained by: [formula]
The leaf area ratio is the ratio of leaf area to […] over a time interval. [formula]
This Example presents a growth analysis of `Starbonnet` rice seedlings treated with triacontanol under different light intensities, "Low" and "High" intensities are defined above, and in the Table VI these designations represent the light to which each plant was subjected.

oat first-internode = conditions: published reports; cited from earlier work
[2] = tested on: Heinz 1350 tomato seedlings; assay: Tomato seedlings in nutrient culture, two application methods (Table XIII); assay type: in vivo
Description: These tests were run to determine the response of "Heinz 1350" tomato seedlings to applications of triacontanol in nutrient culture, in two different application methods.

Michigan 396 field corn = assay: Single and multiple foliar applications on field corn (Example XII); assay type: in vivo
Description: Tests were run, under the conditions above described, to determine the response of "Michigan 396" field corn and "Larker" barley to single and multiple foliar applications of triacontanol at […]. Plants were one week old at time of first treatment and 25 days old at time or harvest. Table XII states the test results.

field corn = assay: Foliar spray and soil drench on field corn (Example IX); assay type: in vivo; conditions: for % increase: dry weight
Procedure: To determine the effect of triacontanol methods of treatment, differing amounts of triacontanol were applied to field corn by foliar spray and by drenching the soil. The plants were twelve days old at the time of treatment, and the plants were harvested when forty-two days old.
0.01 mg/l triacontanol applied by soil drench corresponds to 0.4 grams pe
acre. 0.10 mg/l corresponds to 4 grams per acre.

[3] = foliar spray, 0.01 mg/l (first line)
[4] = foliar spray, printed 0.01 mg/l (second line)

CCCCCCCCCCCCCCCCCCCCCCCCCCCCCCO [Triacontanol, 1-triacontanol]
Dry wt (rice; 0.001 mg/liter): 103 mg/plant
Water Uptake (rice; 0.001 mg/liter): 37.0 g/plant
Dry wt (rice; 0.010 mg/liter): 107 mg/plant
Water Uptake (rice; 0.010 mg/liter): 38.8 g/plant
Dry wt (rice; 0.100 mg/liter): 106 mg/plant
Water Uptake (rice; 0.100 mg/liter): 39.0 g/plant
Dry wt (rice; 1.000 mg/liter): 91 mg/plant
Water Uptake (rice; 1.000 mg/liter): 33.4 g/plant
minimal effective concentration (rice; Oryza sativa, soil, rice seedlings, nutrient cultures): ≥ 0.001 µg/mL
LAR ([1]; high light, 0-4 hours): 3.31
NAR ([1]; high light, 0-4 hours): 6.42
RGR ([1]; high light, 0-4 hours): 0.89
LAR ([1]; high light, 5-8 hours): 3.45
NAR ([1]; high light, 5-8 hours): 3.96
RGR ([1]; high light, 5-8 hours): 0.57
LAR ([1]; high light, 9-16 hours): 3.74
NAR ([1]; high light, 9-16 hours): 3.19
RGR ([1]; high light, 9-16 hours): 0.50
dry weight accumulation per leaf area at low light versus control at high light ([1]; low light intensities): as much dry weight per cm^2 of leaf area at low light intensities as the control plants did at the higher light intensity; also recorded: as much dry weight per unit of leaf area at low light intensities as the control plants did at higher light intensities
LAR ([1]; low light, 0-4 hours): 3.76
NAR ([1]; low light, 0-4 hours): 3.77
RGR ([1]; low light, 0-4 hours): 0.59
LAR ([1]; low light, 5-8 hours): 3.90
NAR ([1]; low light, 5-8 hours): 4.14
RGR ([1]; low light, 5-8 hours): 0.67
LAR ([1]; low light, 9-16 hours): 4.20
NAR ([1]; low light, 9-16 hours): 2.81
RGR ([1]; low light, 9-16 hours): 0.49
growth, oat first-internode method (oat first-internode): not active
Dry wt ([2]; filter paper, 0.01): 382 mg/seedling
Dry wt ([2]; filter paper, 0.10): 430 mg/seedling
Dry wt ([2]; foliar, 0.01): 405 mg/seedling
Dry wt ([2]; foliar, 0.10): 407 mg/seedling
Dry wt, Corn (Michigan 396 field corn; treated at 7, 12 and 18 days): 562 mg/shoot
Dry wt, Corn (Michigan 396 field corn; treated at 7 and 12 days): 542 mg/shoot
Dry wt, Corn (Michigan 396 field corn; treated at 12 and 18 days): 614 mg/shoot
Dry wt, Corn (Michigan 396 field corn; treated at 7 days): 548 mg/shoot
Dry wt, Corn (Michigan 396 field corn; treated at 12 days): 522 mg/shoot
Dry wt, Corn (Michigan 396 field corn; treated at 18 days): 486 mg/shoot
application rate for maximum effectiveness (field corn; corn seedlings): about 4 grams per acre
effective application rate (field corn; corn seedlings): about 0.4 grams per acre
Dry Weight (field corn; [3]): 408 mg/shoot
% increase (field corn; [3]): 22%
Dry Weight (field corn; [4]): 463 mg/shoot
% increase (field corn; [4]): 39%
Dry Weight (field corn; soil drench, 0.01 mg/l): 426 mg/shoot
% increase (field corn; soil drench, 0.01 mg/l): 22%
Dry Weight (field corn; soil drench, 0.10 mg/l): 519 mg/shoot
% increase (field corn; soil drench, 0.10 mg/l): 48%
